{
  "source": "the NIST ThermoML archive (doi:10.1021/acs.jced.8b00487)",
  "conditions": "298.15 K, Liquid, Vibrating tube method",
  "note": "“And” between values parts separate entries of the source, which are not always exact repeats. Equal values may be shown once. ± gives the expanded uncertainty stated by the source.",
  "data": [
    {"smiles": "CCCCC(CC)COP(=O)(O)OCC(CC)CCCC", "note": "(configuration not stated) [bis(2-ethylhexyl) hydrogen phosphate]", "values": [
      {"measurement": "mass density", "setting": "101 kPa", "value": "971 ± 2 kg/m3 and 970.5 ± 2 kg/m3"},
      {"measurement": "mass density", "setting": "101.33 kPa", "value": "969.1 ± 0.6", "unit": "kg/m3"}
    ]}
  ]
}
